Like-named read-outs stand apart in the source and are kept apart here.
Assays:
MMH/GH5 cells (Clone 5) = system: MMH/GH5 cells (Clone 5); design: hGH secreted, MMHGH/5 1 + 24 h / hGH secreted, MMHGH/5 5 + 24 / hGH secreted, MMHGH/5 1 h / hGH secreted, MMHGH/5 5 h: dose or concentration left out as unconfirmed
[1] = system: primary hepatocytes (PHGH); assay: cellular survival of PHGH, Trypan Blue exclusion; type: cell-based, mice; design: % cellular survival, PHGH 1 + 24 h / % cellular survival, PHGH 5 + 24 / % vitality of the cells, PHGH 1 + 24 h / % vitality of the cells, PHGH 5 + 24 h: unit of the concentration uncertain; details: for % vitality of the cells, PHGH 1 + 24 h / % cellular survival, PHGH 1 + 24 h: 1 h treatment + 24 h normal medium; for % vitality of the cells, PHGH 5 + 24 h / % cellular survival, PHGH 5 + 24: 5 h treatment + 24 h normal medium
Description: (§1) This different behaviour is explained by the greater sensitivity to the toxicant of the PHGH with respect to the MMH/GH5 as shown by analysis of the cellular vitality performed with the Trypan Blue method (FIG. 1, graph B). […] Therefore the greater resistance of the cells MMH/GH/5 to the toxicants constitutes another evident advantage as it permits the exclusion of false negatives in which the non-release of hGH, due to cellular death, is interpreted as non-toxicity of the compound. When the supernatant is collected after 5 hours of treatment followed by 24 hours of culture with normal medium (FIG. 1 graph C) the PHGHs respond, at the lowest concentrations of the two toxicants, with high levels of secretion of hGH and, at the highest concentrations, with low levels of secretion of hGH (lower cellular survival, graph D).
(§2) In table 3 the cellular survival percentage was determined with the Trypan Blue exclusion method. […]
(§3) For treatment, the two types of cells were treated with different concentrations of the compounds for 1 or 5 hours and then with normal medium for a further 24 hours. The effects of the treatment were assessed as described previously for the inorganic toxicants.

MMH/GH5 cells = assay: cellular survival of MMH/GH5, Trypan Blue exclusion; type: cell-based, mice; design: % cellular survival, MMHGH/5 1 + 24 h / % cellular survival, MMHGH/5 5 + 24 / % vitality of the cells, MMH/GH 1 + 24 h / % vitality of the cells, MMH/GH 5 + 24 h: unit of the concentration uncertain; details: for % vitality of the cells, MMH/GH 1 + 24 h / % cellular survival, MMHGH/5 1 + 24 h: 1 h treatment + 24 h normal medium; for % vitality of the cells, MMH/GH 5 + 24 h / % cellular survival, MMHGH/5 5 + 24: 5 h treatment + 24 h normal medium
Description: as §1, §2, §3

[2] = system: single transgenic HPS70/hGH primary hepatocytes (PHGH); assay: toxicity test, hGH secretion by primary transgenic hepatocytes (PHGH); type: cell-based, mice; design: hGH secreted, PHGH 1 h / hGH secreted, PHGH 5 h / hGH secreted, PHGH 1 + 24 h / hGH secreted, PHGH 5 + 24: unit of the concentration uncertain
Description: On the basis of the results illustrated, for the further analyses, clone no. […] The response to the toxic stress of the clone MMH/GH5 was then compared with the one obtained in single transgenic HPS70/hGH primary hepatocytes (PHGH). A representative sample of the cell line derived from said clone MMH/GH5 was deposited in accordance with and for the purposes of the Treaty of Budapest on the international recognition of deposit of micro-organisms for the purposes of the patents procedure with the AID “Centro di Biotecnologie Avanzate (CBA), Interlab Cell Line Collection (ICLC)” Servizio Biotecnologie, Largo R. Benzi, 10, 16132 Genova, Italy, on Jul. 30, 2002, where it was given identification number PD 02007.
as §2, §3

[3] = 50 (unit uncertain), Trypan Blue (Table 4)
[4] = 100 (unit uncertain), Trypan Blue
[5] = 25 (unit uncertain), 1 h treatment
[6] = 25 (unit uncertain), 1 h treatment + 24 h normal medium
[7] = 25 (unit uncertain), 5 h treatment
[8] = 25 (unit uncertain), 5 h treatment + 24 h normal medium
[9] = 50 (unit uncertain), 1 h treatment (Table 3)
[10] = 50 (unit uncertain), 1 h treatment + 24 h normal medium (Table 3)
[11] = 50 (unit uncertain), 5 h treatment (Table 3)
[12] = 50 (unit uncertain), 5 h treatment + 24 h normal medium (Table 3)
[13] = 25, 1 h treatment + 24 h normal medium
[14] = 25, 5 h treatment + 24 h normal medium
[15] = 50, 1 h treatment + 24 h normal medium (Table 3)
[16] = 50, 5 h treatment + 24 h normal medium (Table 3)
[17] = 25 (unit uncertain), Trypan Blue
[18] = 50 (unit uncertain), Trypan Blue (Table 3)

Compound	% vitality of the cells, PHGH 1 + 24 h [1, 3] [%]	% vitality of the cells, PHGH 5 + 24 h [1, 3] [%]	% vitality of the cells, PHGH 1 + 24 h [1, 4] [%]	% vitality of the cells, PHGH 5 + 24 h [1, 4] [%]	% vitality of the cells, MMH/GH 1 + 24 h (MMH/GH5 cells; [3]) [%]	% vitality of the cells, MMH/GH 5 + 24 h (MMH/GH5 cells; [3]) [%]	% vitality of the cells, MMH/GH 1 + 24 h (MMH/GH5 cells; [4]) [%]	% vitality of the cells, MMH/GH 5 + 24 h (MMH/GH5 cells; [4]) [%]	hGH secreted, PHGH 1 h [2, 5] [pg hGH/10^6 cells]	hGH secreted, PHGH 1 + 24 h [2, 6] [pg hGH/10^6 cells]	hGH secreted, PHGH 5 h [2, 7] [pg hGH/10^6 cells]	hGH secreted, PHGH 5 + 24 [2, 8] [pg hGH/10^6 cells]	hGH secreted, PHGH 1 h [2, 9] [pg hGH/10^6 cells]	hGH secreted, PHGH 1 + 24 h [2, 10] [pg hGH/10^6 cells]	hGH secreted, PHGH 5 h [2, 11] [pg hGH/10^6 cells]	hGH secreted, PHGH 5 + 24 [2, 12] [pg hGH/10^6 cells]	hGH secreted, MMHGH/5 1 h (MMH/GH5 cells (Clone 5); 25, 1 h treatment) [pg hGH/10^6 cells]	hGH secreted, MMHGH/5 1 + 24 h (MMH/GH5 cells (Clone 5); [13]) [pg hGH/10^6 cells]	hGH secreted, MMHGH/5 5 h (MMH/GH5 cells (Clone 5); 25, 5 h treatment) [pg hGH/10^6 cells]	hGH secreted, MMHGH/5 5 + 24 (MMH/GH5 cells (Clone 5); [14]) [pg hGH/10^6 cells]	further results
O=[As][O-].[Na+] [NaAsO2]	–	–	–	–	–	–	–	–	–	–	–	–	–	–	–	–	–	–	–	–	hGH secreted, 5 + 24 h (MMH/GH cells, Clone 4): 0; hGH secreted, 5 h (MMH/GH cells, Clone 4): 0; hGH secreted, 5 + 24 h (MMH/GH cells, Clone 11): 0
Oc1c(Cl)c(Cl)c(Cl)c(Cl)c1Cl [PCP, PentaChloroPhenol]	10	10	0	0	90	70	80	50	–	–	–	–	–	–	–	–	–	–	–	–	induction of a response in MMH/GH5 (MMH/GH5 cells (Clone 5); words, Table 4): requires a prolonged exposure time to induce a response; toxicity for the PHGHs ([1]; words, Table 4): toxic
CCCCC[C@H](O)/C=C/[C@H]1C=CC(=O)[C@@H]1CCCCCCC(=O)O [PGA1]	–	–	–	–	–	–	–	–	9	13	16	69	7	4	17	522	10	0	27	2	hGH secreted, MMHGH/5 1 h (MMH/GH5 cells (Clone 5); 50, 1 h treatment (Table 3)): 94 pg hGH/10^6 cells; hGH secreted, MMHGH/5 1 + 24 h (MMH/GH5 cells (Clone 5); [15]): 116 pg hGH/10^6 cells; hGH secreted, MMHGH/5 5 h (MMH/GH5 cells (Clone 5); 50, 5 h treatment (Table 3)): 47 pg hGH/10^6 cells; hGH secreted, MMHGH/5 5 + 24 (MMH/GH5 cells (Clone 5); [16]): 9 pg hGH/10^6 cells; % cellular survival, PHGH 1 + 24 h [1, 17]: 95%; % cellular survival, PHGH 5 + 24 [1, 17]: 90%; % cellular survival, PHGH 1 + 24 h [1, 18]: 90%; % cellular survival, PHGH 5 + 24 [1, 18]: 70%; % cellular survival, MMHGH/5 1 + 24 h (MMH/GH5 cells; [17]): 90%; % cellular survival, MMHGH/5 5 + 24 (MMH/GH5 cells; [17]): 90%; % cellular survival, MMHGH/5 1 + 24 h (MMH/GH5 cells; [18]): 90%; % cellular survival, MMHGH/5 5 + 24 (MMH/GH5 cells; [18]): 90%
CCCCC[C@H](O)/C=C/[C@H]1C=CC(=O)[C@@H]1C/C=C\CCCC(=O)O [PGA2]	–	–	–	–	–	–	–	–	1	0	56	10	27	26	95	37	1	2	53	0	hGH secreted, MMHGH/5 1 h (MMH/GH5 cells (Clone 5); 50, 1 h treatment (Table 3)): 8 pg hGH/10^6 cells; hGH secreted, MMHGH/5 1 + 24 h (MMH/GH5 cells (Clone 5); [15]): 92 pg hGH/10^6 cells; hGH secreted, MMHGH/5 5 h (MMH/GH5 cells (Clone 5); 50, 5 h treatment (Table 3)): 107 pg hGH/10^6 cells; hGH secreted, MMHGH/5 5 + 24 (MMH/GH5 cells (Clone 5); [16]): 0 pg hGH/10^6 cells; % cellular survival, PHGH 1 + 24 h [1, 17]: 90%; % cellular survival, PHGH 5 + 24 [1, 17]: 90%; % cellular survival, PHGH 1 + 24 h [1, 18]: 90%; % cellular survival, PHGH 5 + 24 [1, 18]: 90%; % cellular survival, MMHGH/5 1 + 24 h (MMH/GH5 cells; [17]): 90%; % cellular survival, MMHGH/5 5 + 24 (MMH/GH5 cells; [17]): 90%; % cellular survival, MMHGH/5 1 + 24 h (MMH/GH5 cells; [18]): 90%; % cellular survival, MMHGH/5 5 + 24 (MMH/GH5 cells; [18]): 90%
Oc1c(Cl)c(Cl)c(O)c(Cl)c1Cl [TCHQ, TetraChloroHydroQuinone]	50	60	0	0	50	30	10	0	–	–	–	–	–	–	–	–	–	–	–	–	response in PHGH ([2]; compared with PCP, words): stronger response; response in MMH/GH5 (MMH/GH5 cells (Clone 5); compared with PCP, words): stronger response

Reference: patent US20050255595A1, “Genetically modified non-human mammal cells, procedure for their production and use in toxicity tests” (priority 2002, published 2005)
